# Measurements published in PubChem BioAssay AID330 (DTP/NCI, 2004).
# “And” between values parts separate entries of the source, which are not always exact repeats. Equal entries are not always repeated. Inconclusive results and toxic doses are left out.
# System: P388 leukemia ip, CD2F1 mice, survival T/C
# Experiment: NCI In Vivo Anticancer Drug Screen. Data for tumor model P388 Leukemia (intraperitoneal) in CD2F1 (CDF1) mice
# Conditions: endpoint: median survival time, higher = longer survival
# Summary of the method: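 Mice carrying the transplanted tumor received test compound or vehicle. Survival was recorded in each group, and the value is the treated-group measurement divided by that of the vehicle-treated control group.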
# [1] = dose: 50.0 mg/kg/injection, schedule: Q01DX009 (ip), vehicle: Klucel (hydroxypropylcellulose) (HPC)
# [2] = dose: 100.0 mg/kg/injection, schedule: Q01DX001 (ip), vehicle: Klucel (hydroxypropylcellulose) (HPC)
# [3] = dose: 200.0 mg/kg/injection, schedule: Q01DX001 (ip), vehicle: Klucel (hydroxypropylcellulose) (HPC)
# [4] = dose: 60.0 mg/kg/injection, schedule: Q01DX005 (ip), vehicle: Klucel (hydroxypropylcellulose) (HPC)
# [5] = dose: 120.0 mg/kg/injection, schedule: Q01DX005 (ip), vehicle: Klucel (hydroxypropylcellulose) (HPC)
# [6] = dose: 240.0 mg/kg/injection, schedule: Q01DX005 (ip), vehicle: Klucel (hydroxypropylcellulose) (HPC)
# [7] = dose: 50.0 mg/kg/injection, schedule: Q01DX001 (ip), vehicle: Klucel (hydroxypropylcellulose) (HPC)
# [8] = dose: 50.0 mg/kg/injection, schedule: Q01DX005 (ip), vehicle: saline with Tween-80
# [9] = dose: 100.0 mg/kg/injection, schedule: Q01DX005 (ip), vehicle: saline with Tween-80
# [10] = dose: 200.0 mg/kg/injection, schedule: Q01DX005 (ip), vehicle: saline with Tween-80
# [11] = dose: 50.0 mg/kg/injection, schedule: Q01DX005 (ip), vehicle: Klucel (hydroxypropylcellulose) (HPC)
# [12] = dose: 100.0 mg/kg/injection, schedule: Q01DX005 (ip), vehicle: Klucel (hydroxypropylcellulose) (HPC)
# [13] = dose: 200.0 mg/kg/injection, schedule: Q01DX005 (ip), vehicle: Klucel (hydroxypropylcellulose) (HPC)
# [14] = dose: 25.0 mg/kg/injection, schedule: Q01DX009 (ip), vehicle: saline
# [15] = dose: 50.0 mg/kg/injection, schedule: Q01DX009 (ip), vehicle: saline
# [16] = dose: 100.0 mg/kg/injection, schedule: Q01DX009 (ip), vehicle: saline
# [17] = dose: 100.0 mg/kg/injection, schedule: Q04DX003 (ip), vehicle: saline with Tween-80
# [18] = dose: 200.0 mg/kg/injection, schedule: Q04DX003 (ip), vehicle: saline with Tween-80
# [19] = dose: 400.0 mg/kg/injection, schedule: Q04DX003 (ip), vehicle: saline with Tween-80
smiles,measurement,setting,value
COc1cc2c(/C=N/NS(=O)(=O)c3ccc(C)cc3)c(Cl)[nH]c2cc1C,T/C,"dose: 12.5 mg/kg/injection, schedule: Q01DX009 (ip), vehicle: Klucel (hydroxypropylcellulose) (HPC)",103 % of control
same,T/C,"dose: 25.0 mg/kg/injection, schedule: Q01DX009 (ip), vehicle: Klucel (hydroxypropylcellulose) (HPC)",95 % of control
same,T/C,[1],92 % of control
same,T/C,[2],100 % of control
same,T/C,[3],120 % of control
same,T/C,"dose: 400.0 mg/kg/injection, schedule: Q01DX001 (ip), vehicle: Klucel (hydroxypropylcellulose) (HPC)",100 % of control
Cc1cc(-n2c(C)nc3ccccc3c2=O)on1,T/C,[4],101 % of control
same,T/C,[5],93 % of control
same,T/C,[6],104 % of control
O=c1[nH][nH]c(=O)n1/N=C\c1ccccc1O,T/C,[7],100 % of control
same,T/C,[2],104 % of control
same,T/C,[3],98 % of control
O=C(CN(O)C(=O)c1ccccc1)OCc1ccccc1,T/C,"dose: 12.5 mg/kg/injection, schedule: Q01DX009 (ip), vehicle: distilled water + Tween-80",97 % of control
same,T/C,"dose: 25.0 mg/kg/injection, schedule: Q01DX009 (ip), vehicle: distilled water + Tween-80",99 % of control
same,T/C,"dose: 50.0 mg/kg/injection, schedule: Q01DX009 (ip), vehicle: distilled water + Tween-80",99 % of control
same,T/C,"dose: 100.0 mg/kg/injection, schedule: Q01DX009 (ip), vehicle: distilled water + Tween-80",101 % of control
same,T/C,"dose: 200.0 mg/kg/injection, schedule: Q01DX009 (ip), vehicle: distilled water + Tween-80",101 % of control
COc1ccc(/C=C/Cc2cc3c(cc2OC)OCO3)cc1,T/C,"dose: 60.0 mg/kg/injection, schedule: Q01DX005 (ip), vehicle: saline with Tween-80",104 % of control
same,T/C,"dose: 120.0 mg/kg/injection, schedule: Q01DX005 (ip), vehicle: saline with Tween-80",93 % of control
same,T/C,"dose: 240.0 mg/kg/injection, schedule: Q01DX005 (ip), vehicle: saline with Tween-80",90 % of control
COc1cccc2c1C(=O)c1c(O)c3c(c(O)c1C2=O)C[C@@](O)(/C(C)=N/NC(=O)c1ccc(Cl)c(Cl)c1)C[C@@H]3OC1CC(N)C(O)C(C)O1 (stereo partly specified),T/C,"dose: 0.12 mg/kg/injection, schedule: Q01DX009 (ip), vehicle: water",117 % of control
same,T/C,"dose: 0.5 mg/kg/injection, schedule: Q01DX009 (ip), vehicle: water",157 % of control
same,T/C,"dose: 1.0 mg/kg/injection, schedule: Q01DX009 (ip), vehicle: water",166 % of control
same,T/C,"dose: 2.0 mg/kg/injection, schedule: Q01DX009 (ip), vehicle: water",155 % of control and 175 % of control
same,T/C,"dose: 4.0 mg/kg/injection, schedule: Q01DX009 (ip), vehicle: water",163 % of control
same,T/C,"dose: 5.0 mg/kg/injection, schedule: Q01DX001 (ip), vehicle: water",159 % of control
same,T/C,"dose: 10.0 mg/kg/injection, schedule: Q01DX001 (ip), vehicle: water",168 % of control
same,T/C,"dose: 20.0 mg/kg/injection, schedule: Q01DX001 (ip), vehicle: water",123 % of control
CC(C)NC(=O)OCc1cn2c(c1COC(=O)NC(C)C)CCC2,T/C,"dose: 12.5 mg/kg/injection, schedule: Q01DX005 (ip), vehicle: saline with Tween-80",120 % of control and 121 % of control
same,T/C,"dose: 25.0 mg/kg/injection, schedule: Q01DX005 (ip), vehicle: saline with Tween-80",112 % of control
O=C1NC2(CCCCC2)C(=O)N1CCN1C(=O)NC2(CCCCC2)C1=O,T/C,"dose: 0.75 mg/kg/injection, schedule: Q01DX009 (ip), vehicle: saline",104 % of control
same,T/C,"dose: 1.5 mg/kg/injection, schedule: Q01DX009 (ip), vehicle: saline",91 % of control
same,T/C,"dose: 3.0 mg/kg/injection, schedule: Q01DX009 (ip), vehicle: saline",106 % of control
same,T/C,"dose: 6.0 mg/kg/injection, schedule: Q01DX009 (ip), vehicle: saline",118 % of control
same,T/C,"dose: 12.0 mg/kg/injection, schedule: Q01DX009 (ip), vehicle: saline",106 % of control
CN1CC2c3ccccc3C(=O)C1(O)c1ccccc12 (stereo unspecified),T/C,[8],103 % of control
same,T/C,[9],103 % of control
same,T/C,[10],103 % of control
CCOC(=O)C1(C)OC1c1ccc([N+](=O)[O-])cc1 (stereo unspecified),T/C,"dose: 100.0 mg/kg/injection, schedule: Q04DX003 (ip), vehicle: Klucel (hydroxypropylcellulose) (HPC)",97 % of control
same,T/C,"dose: 200.0 mg/kg/injection, schedule: Q04DX003 (ip), vehicle: Klucel (hydroxypropylcellulose) (HPC)",94 % of control
same,T/C,"dose: 400.0 mg/kg/injection, schedule: Q04DX003 (ip), vehicle: Klucel (hydroxypropylcellulose) (HPC)",100 % of control
O=[N+]([O-])c1ccc(/C(=C/c2ccc(Cl)cc2Cl)S(=O)(=O)C(Cl)Cl)o1,T/C,"dose: 50.0 mg/kg/injection, schedule: Q01DX009 (ip), vehicle: suspension in saline",86 % of control
same,T/C,"dose: 100.0 mg/kg/injection, schedule: Q01DX009 (ip), vehicle: suspension in saline",96 % of control
same,T/C,"dose: 200.0 mg/kg/injection, schedule: Q01DX009 (ip), vehicle: suspension in saline",103 % of control
O=c1[nH]c(=O)c2c(Cl)cccc2[nH]1,T/C,[8],93 % of control
same,T/C,[9],100 % of control
same,T/C,[10],91 % of control
COc1c2ccoc2cc2oc(=O)ccc12,T/C,[11],102 % of control
same,T/C,[12],96 % of control
same,T/C,[13],93 % of control
C=CCC(C(=C)Sc1ccccc1)S(=O)(=O)c1ccccc1 (stereo unspecified),T/C,"dose: 100.0 mg/kg/injection, schedule: Q04DX002 (ip), vehicle: saline with Tween-80",115 % of control
same,T/C,"dose: 200.0 mg/kg/injection, schedule: Q04DX002 (ip), vehicle: saline with Tween-80",109 % of control
same,T/C,"dose: 400.0 mg/kg/injection, schedule: Q04DX002 (ip), vehicle: saline with Tween-80",105 % of control
CCOC(=O)C1CSCN1 (stereo unspecified),T/C,[14],97 % of control
same,T/C,[15],95 % of control
same,T/C,[16],100 % of control
same,T/C,"dose: 200.0 mg/kg/injection, schedule: Q01DX009 (ip), vehicle: saline",100 % of control
Cc1nn(CCO)c(-c2ccccc2)c1-n1on1-c1c(C)nn(CCO)c1-c1ccccc1,T/C,[14],97 % of control
same,T/C,[15],98 % of control
same,T/C,[16],98 % of control
Cc1ccc(NC(=O)Nc2ccccc2C(N)=O)cc1,T/C,[17],95 % of control
same,T/C,[18],95 % of control
same,T/C,[19],90 % of control
NNC(N)=NC1CCCCC1,T/C,[11],95 % of control
same,T/C,[12],97 % of control
COC(=O)c1nc(N)nc(C(=O)OC)c1C(=O)c1ccncc1,T/C,[4],92 % of control
same,T/C,[5],96 % of control
S=C(N/N=C\c1nc2ccccc2c2ccccc12)Nc1ccccc1,T/C,"dose: 100.0 mg/kg/injection, schedule: Q04DX002 (ip), vehicle: Klucel (hydroxypropylcellulose) (HPC)",99 % of control
same,T/C,"dose: 200.0 mg/kg/injection, schedule: Q04DX002 (ip), vehicle: Klucel (hydroxypropylcellulose) (HPC)",94 % of control
same,T/C,"dose: 400.0 mg/kg/injection, schedule: Q04DX002 (ip), vehicle: Klucel (hydroxypropylcellulose) (HPC)",93 % of control
CCOC(=O)CC1=NC(=Nc2ccc(Cl)c(Cl)c2)SC1,T/C,[8],103 % of control
same,T/C,[9],104 % of control
same,T/C,[10],100 % of control
CC(O)C(NC(=O)OCC1c2ccccc2-c2ccccc21)C(=O)O (stereo unspecified),T/C,[11],104 % of control
same,T/C,[12],100 % of control
same,T/C,[13],107 % of control
Clc1c2c(c(Cl)c3c1=Nc1ccc4ccccc4c1S3)=Nc1ccc3ccccc3c1S2,T/C,[17],107 % of control
same,T/C,[18],113 % of control
same,T/C,[19],115 % of control
N#CN1C2CCC1CC(O)(c1ccccc1)C2 (stereo unspecified),T/C,[8],104 % of control and 99 % of control
same,T/C,[9],102 % of control
same,T/C,[10],103 % of control
O=C(C(Oc1ccc(Cl)cc1)n1cncn1)N1CCOC1C1CCCCC1 (stereo unspecified),T/C,[7],103 % of control
same,T/C,[2],100 % of control
same,T/C,[3],100 % of control
C(=N/c1ccccn1)/c1ccc2c(c1)OCO2,T/C,[1],100 % of control
same,T/C,"dose: 100.0 mg/kg/injection, schedule: Q01DX009 (ip), vehicle: Klucel (hydroxypropylcellulose) (HPC)",105 % of control
same,T/C,"dose: 200.0 mg/kg/injection, schedule: Q01DX009 (ip), vehicle: Klucel (hydroxypropylcellulose) (HPC)",101 % of control
O=C1C(c2nc3ccccc3[nH]2)=C(O)c2ccccc21,T/C,[4],87 % of control
same,T/C,[5],87 % of control
same,T/C,[6],87 % of control
